Entries after “also recorded” stand apart in the source; their conditions may differ.

Series [1] deals with peripheral serotonin. Kind of series: Peripheral serotonin levels in wild-type mice (Example 11). It counts as in vivo. To be noted: 5 mice per compound. The method, then: (§1) Serotonin serum levels were quantified using immunoassay kits from Fitzgerald (Serotonin) and serotonin levels in the different regions of the brain were quantified by HPLC method as described previously (Mann et al., 1992, Arch. Gen. Psychiatry 49:442-446).
The following three compounds were tested for their ability to effect peripheral serotonin levels in wild-type mice:
Also tested as a negative control was vehicle alone. Each compound as well as vehicle was administered to 5 mice and the resulting peripheral serotonin levels were as follows: […]

Series [2] deals with peripheral serotonin. Nature of the series: Effect of CBMIDA and pCPA on peripheral (serum) serotonin in mice (Example 1). Conditions: for reduction of peripheral (serum) serotonin: 250 mg/kg orally. Type of series: in vivo. As for the experimental part: One month old C57B1/6 inbred male mice, weighing 15-16 g were used in the experiments. Animals were housed under 12 h light/12 h dark conditions in a room with controlled temperature (22° C.) and humidity (60%). Mice had ad libitum access to food and water, and were used after a minimum of 4 days of acclimatization to the housing conditions. All experiments were conducted following Columbia University Guidelines for the Animal Use and Care of laboratory mice.
(§2) Before the experiments, animals were separated into individual cages one day prior to the experiment. Compounds were fed orally (gavage) to the mouse, calculated according to the weight of the mouse, twice a day at 1700 h and at 1100 h. […] This route created two potential barriers for the compound to reach the brain. […] Control animals received the same volume of vehicle. Blood was collected through heart puncture on isofluorane-anaesthesized animals and allowed to clot for 5 minutes on ice. The serum was separated, snap chilled in liquid nitrogen and frozen at −80° C. till analyzed. Brainstems from all the animals were collected and processed for brain serotonin measurement through HPLC.
The Serotonin ELISA kit obtained from the Fitzgerald company was used to measure derivatized serotonin from serum. Derivatization is part of the sample preparation. Serotonin present in the serum was first quantitatively acylated into N-Acylserotonin using the acylation reagent. The principle of the assay is based on competitive ELISA, wherein serotonin that is bound to the solid phase of the plate and the N-acylserotonin compete for the fixed number of antiserum binding sites. When the reaction is in equilibrium, free antigen and free antigen-antiserum complexes are removed by washing.
The antibody bound to the solid phase serotonin is then detected using antirabbit/peroxidase. The substrate TMB/Peroxidase reaction is read at 450 nm. The amount of antibody bound to the solid phase serotonin is inversely proportional to the concentration of serotonin in the sample.
Catechol-3,6-bis methyleneiminodiacetic acid (CBMIDA) (basic structure is an EDTA-like compound and the catechol ring is at the centre) synthesized at the Columbia University Chemistry division, and para-chlorophenylalanine (pCPA) obtained from Sigma Aldrich Corp. were used. Each compound was dissolved with twice molar solution of NaHCO3 in water and given to mouse orally at 250 and 500 mg/kg/dose.

A further series addresses rb 5-HT1B receptors (Oryctolagus cuniculus, UniProt P49144). Conditions: cited from earlier work.
For another series, the system named is brain serotonin. Nature of the series: Brain serotonin / blood brain barrier after oral pCPA in mice. It counts as in vivo. To be noted: 250 mg/kg orally. As for the experimental part:
as §2

Another series deals with Lrp5−/− mice. Nature of the series: pCPA treatment of Lrp5−/− and WT mice. Type of series: in vivo. As for the experimental part:
Consistent with the conclusion that the increase in serum serotonin level is responsible fully or partly for the bone phenotype of the Lrp5−/− mice is the discovery that pCPA, a serotonin synthesis inhibitor (Eldridge et al., 1981, Ann. Rev. Physiol. 43:121-135), prevented the appearance of the Lrp5−/− bone phenotype by decreasing serotonin production. WT and Lrp5−/− mice were treated with 300 mg/kg pCPA intraperitoneally three times per week, from 3 weeks to 12 weeks of age (FIG. 7A) and the changes in serum serotonin levels, TPH1 expression in gut and TPH2 expression in brain stem were analyzed. Bone histomorphometry was also performed. […] This rescue of the Lrp5−/− phenotype was achieved by normalization of the gut TPH1 mRNA and of serum serotonin levels (FIGS. 7C and 7D).
Generation of Lrp5−/− (Kato et al., 2002, J. Cell Biol. 157:303-314) β-cateninfloxed/floxed (Glass et al., 2005, Dev. Cell 8:751-764), α1(I)collagen-cre transgenic (Dacquin et al., 2002, Dev. Dyn. 224:245-251) and Htt−/− (Ansorge et al., 2008, J. Neurosci. 28:199-207) mice were as described previously. Lrp5+/−;Htt+/− double heterozygous mice were generated by crossing Lrp5+/− and Htt+/− mice. Three week-old Wt or Lrp5−/− mice were administered pCPA on alternate days for 9 weeks by i.p. All animal protocols were approved by the Animal Care Committees of Columbia University.
Static histomorphometry measurements were performed as previously described in accordance with standard nomenclature, using the Osteomeasure Analysis System (Osteometrics, Inc) (Ducy et al., 2000, Cell 100:197-207). Four to 9 animals were assigned per group.
as §1

The next series deals with CREB. Nature of the series: CREB phosphorylation (Western blot) and CREB binding to Cyclin D1 promoter (ChIP) in primary osteoblasts. It counts as cell-based, mouse. As for the experimental part: (§3) Osteoblasts were treated in serum-free medium with vehicle or Serotonin (50 to 100 μM, Sigma) for 24 hr. Total RNA were extracted with Trizol (Invitrogen). cDNA were generated using the ABI Reverse transcriptase system and random hexanucleotide primers. Real-time PCR was performed using superarray primers on a Stratagene real time PCR cycler and Actin expression was used as endogenous control. Chromatin immunoprecipitation assays (ChIP) were performed by standard procedures using primary osteoblasts. Microarray analysis was performed as described previously (Glass et al., 2005, Dev. Cell 8:751-764).
Osteoblasts were treated in serum-free medium with vehicle or Serotonin (50 to 100 μM, Sigma) for 24 hr. Lysates from primary osteoblasts or crushed frozen bones were prepared in RIPA buffer in the presence of protease and phosphatase inhibitors. Twenty to 60 μg of proteins were separated by SDS-PAGE in reducing conditions and transferred on nitrocellulose membrane using standard protocols. Membranes were incubated with primary antibodies including total or anti-Phospho CREB (Cell Signaling Technology).

Another series relates to primary osteoblasts. Kind of series: Real-time PCR of gene expression in primary osteoblasts treated with serotonin. Conditions: serotonin 50 to 100 μM, 24 hr. It counts as cell-based, mouse. As for the experimental part:
Calvaria osteoblasts were extracted by triple collagenase/trypsine digestion from 4 day-old CD1 pups and differentiated with ascorbic acid as previously described (Duey et al., 2000, Cell 100:197-207).
as §3
A general note: Real-time PCR tracks product formation cycle by cycle.

A further series deals with ovariectomized rats. Nature of the series: Curative regimen in ovariectomized rats (histomorphometry, μCT, biomechanical testing). It counts as in vivo. To be noted: OVX rats. The method, then: Virgin female Sprague-Dawley rats (National Institute of Nutrition, Hyderabad, India) were obtained at 3 months of age and allowed to acclimate to the facility for 1 week before study initiation and surgical procedures. They were housed under a 12 hour:12 hour light:dark cycle and provided throughout the study with water and PMI (Purina Mills, Incorporated) Certified Rodent Laboratory Chow. Rats were subjected to either bilateral ovariectomy or a sham operation under isoflurane anesthesia. […] The rats were divided into two groups of sham-operated and ovariectomized animals and left untreated for 3 weeks to allow bone loss to occur. One group of sham and one group of ovariectomized rats (n=10/group) were killed as baseline controls to determine bone loss before the start of LP-533,401 or PTH administration. The remaining animals (n=5-10/group) received vehicle or LP-533,401 (250 mg/kg/day) by gavage, or recombinant human PTH (80 ug/kg) by daily subcutaneous (s.c.) injection for 4 weeks. The 80 ug/kg dose of PTH was selected as being optimal for reversal of ovariectomy-induced bone loss in rats based on previous studies, while the dose of LP-533,401 was selected based on the effective dose for bone loss-reversal observed in mice experiments. To label bone-forming surfaces, animals were injected s.c. with calcein (8 mg/kg) at 10 and 3 days before death. Animals were killed by an overdose of Isofluorane anesthesia. The right tibia and lumbar vertebra 2 (L2) were collected, cleaned of excess soft tissue, fixed overnight in 10% formalin and processed for μCT or histomorphometric analysis. The right femur and L3 were cleaned of excess tissue and stored at −20° C. prior to biomechanical testing.
Bone histomorphometry was performed as previously described (Duey et al., 2000, Cell 100:197-207; Takeda et al., 2002, Cell 111:305-317; Parfitt et al., 1987, J. Bone Miner. Res. 2:595-610). Briefly, lumbar vertebrae were dissected, fixed for 24 hr in 10% formalin, dehydrated in graded ethanol series, and embedded in methyl methacrylate resin according to standard protocols (Parfitt et al., 1987, J. Bone Miner. Res. 2:595-610). Von Kossa/Von Gieson staining was performed using 7 μm sections for bone volume over tissue volume (BV/TV) measurement. Bone formation rate (BFR) was analyzed by the calcein double-labeling method (Ducy et al., 2000, Cell 100:197-207). Calcein (Sigma Chemical Co., St. Louis, Mo.) was dissolved in calcein buffer (0.15 M NaCl, 2% NaHCO3) and injected twice at 0.125 mg/g body weight on day 1 and 4, and then mice were killed on day 6. Unstained 4 μm sections were used for bone formation rate (BFR) measurements. For the analysis of parameters of osteoblasts and osteoclasts, 4 μm sections were stained with toluidine blue and tartrate-resistant acid phosphatase (TRAP), respectively (2). Histomorphometric analyses were performed using the Osteomeasure Analysis System (Osteometrics, Atlanta, Ga.).
Trabecular bone architecture of proximal tibia was assessed using a micro computed tomography (μCT) system (VivaCT 40, SCANCO Medical AG, Bassersdorf, Switzerland). Tibia bone specimen was stabilized with gauze in a 2 ml centrifuge tube filled with 70% ethanol and fastened in the specimen holder of the μCT scanner. One hundred μCT slices, corresponding to a 1.05 mm region distal from the growth plate, were acquired at an isotropic spatial resolution of 10.5 μm. A global thresholding technique was applied to binarize gray-scale μCT images where the minimum between the bone and bone marrow peaks in the voxel gray value histogram was chosen as the threshold value. The trabecular bone compartment was segmented by a semi-automatic contouring method and subjected to a model-independent morphological analysis (Hildebrand et al., 1999, J. Bone Miner. Res. 14:1167-1174) by the standard software provided by the manufacture of the μCT scanner. […]

Where [3] appears, read: 300 mg/kg i.p. three times per week, 3 to 12 weeks of age.
Where [4] appears, read: LP-533,401 250 mg/kg/day, PTH 80 μg/kg/day.

Sequence of rb 5-HT1B receptors (P49144 whole entry): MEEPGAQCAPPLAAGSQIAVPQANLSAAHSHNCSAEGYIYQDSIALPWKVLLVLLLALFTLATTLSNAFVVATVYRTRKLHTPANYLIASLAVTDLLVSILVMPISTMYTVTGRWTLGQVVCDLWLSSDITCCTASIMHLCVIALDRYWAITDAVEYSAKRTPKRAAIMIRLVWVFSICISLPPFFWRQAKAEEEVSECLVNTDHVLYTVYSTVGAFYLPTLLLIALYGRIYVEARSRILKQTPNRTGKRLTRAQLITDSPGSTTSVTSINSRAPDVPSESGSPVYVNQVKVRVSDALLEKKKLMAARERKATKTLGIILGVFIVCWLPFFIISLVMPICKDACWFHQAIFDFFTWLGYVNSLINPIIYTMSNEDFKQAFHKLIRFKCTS

Regarding `Nc1nc(OC(c2ccc(-c3cccc(F)c3)cc2)C(F)(F)F)cc(-c2ccc(OC[C@H](N)C(=O)O)cc2)n1` (stereo partly drawn) [(2S)-2-amino-3-(4-(2-amino-6-(2,2,2-trifluoro-1-(3′-fluorobiphenyl-4-yl)ethoxy)pyrimidin-4-yl)phenoxy)propanoic acid], in the series with peripheral serotonin [1], the “Peripheral serotonin (ng/ml) (mean ± SEM)” value stood at 93.77 ± 12.15 ng/mL.
As for `O=C(O)CN(CC(=O)O)Cc1ccc(CN(CC(=O)O)CC(=O)O)c(O)c1O` [CBMIDA, Catechol-3,6-bis methyleneiminodiacetic acid], the “reduction of peripheral (serum) serotonin” value in the series on peripheral serotonin [2] (4 week old mice) is ~45%. Also, the “reduction of peripheral serotonin” value in the series on peripheral serotonin [2] (4 week old mice, 500 mg/kg orally twice in 20 hours) is “about 80%”. For the same molecule, the “serotonin serum levels, decrease below normal” value in the series on peripheral serotonin [2] (mice, 500 mg/kg orally twice daily) is listed as 80 % below normal. The peripheral serotonin entry in the series with peripheral serotonin [2] (oral feeding (FIG. 11)) is given as “reduces”.
As to `COC(=O)C(=O)Nc1ccc(-c2cc(OC(c3ccc(-c4cccc(F)c4)cc3)C(F)(F)F)nc(N)n2)cc1` (stereo not drawn) [Methyl 2-(4-(2-amino-6-(2,2,2-trifluoro-1-(3′-fluorobiphenyl-4-yl)ethoxy)pyrimidin-4-yl)phenylamino)-2-oxoacetate], the “Peripheral serotonin (ng/ml) (mean ± SEM)” value in the series with peripheral serotonin [1] stood at 23.76 ± 8.25 ng/mL.
In the case of `O=C(c1ccc(F)cc1)C1CCN(CCn2c(=O)[nH]c3ccccc3c2=O)CC1` [ketanserin], the “behaviour at rb 5-HT1B receptors” value at rb 5-HT1B receptors was “as silent, competitive antagonists”.
For the molecule `NC(Cc1ccc(Cl)cc1)C(=O)O` (stereo not drawn) [pCPA, para-chlorophenylalanine], in the series on brain serotonin, the “crossing of the blood brain barrier” value is reported as “did not cross the blood brain barrier” and the “serotonin in the brain” value is recorded as “did not decrease”. The “reduction of peripheral (serum) serotonin” value in the series with peripheral serotonin [2] (4 week old mice) is listed as ~50%. Besides, the “serum serotonin levels, decrease below normal range” value with peripheral serotonin [2] (mice, oral, control inhibitor) was > 60 % below normal range. Further, in the series with Lrp5−/− mice (setting [3]), the “bone abnormalities (low bone phenotype) of Lrp5−/− mice” value is “corrected” and the “bone mass in WT mice” value is reported as “without overtly affecting”. In addition, the “gut TPH1 mRNA” value in the series with Lrp5−/− mice (Lrp5−/− mice, 300 mg/kg i.p.) is “normalization”. For the same molecule, in the series on Lrp5−/− mice (Lrp5−/− mice, 300 mg/kg i.p., 300 mg/kg), the serum serotonin levels result was “normalizes; also recorded: normalization”. For the same molecule, the “Brain TPH2 mRNA levels” value in the series on Lrp5−/− mice (treated mice, 300 mg/kg i.p.) is listed as “not affected”.
For the molecule `NCCc1c[nH]c2ccc(O)cc12` [serotonin, 5-hydroxytryptamine], in the series with CREB, the CREB phosphorylation entry is “significantly decreased” and the “binding of CREB to the Cyclin D1 promoter (ChIP)” value was “decreased”. Also, in the series on primary osteoblasts, the “expression of Cyclin D1” value is on record as “decreased”, the “expression of Cyclin D2” value was “decreased”, the “expression of Osteocalcin” value is “not modified” and the “expression of Runx2” value is recorded as “not modified”. Also, in the series with primary osteoblasts, the “expression of Type I collagen” value is listed as “not modified”.

B1: PTH: recombinant human PTH, intermittent s.c. injections, standard to which bone anabolic agents are compared (protein, UniProt P01270 32-115, looked up)
Parathyroid hormone: SVSEIQLMHNLGKHLNSMERVEWLRKKLQDVHNFVALGAPLAPRDAGSQRPRKKEDNVLVESHEKSLGEADKADVNVLTKAKSQ
modifications: Parathyroid hormone
notes: recombinant human PTH, intermittent s.c. injections, standard to which bone anabolic agents are compared
Turning to B1, the “number of osteoclasts per bone surface (OcS/BS) versus untreated ovariectomized rats” value in the series with ovariectomized rats is “similar”. Further, in the series with ovariectomized rats (setting [4]), the “decrease in cortical thickness at the femur mid-shaft” value is “equally rescued”; the “maximal load (femur, vertebra)” value is “restored to values seen in sham-operated rats”; the “stiffness (femur, vertebra)” value is on record as “restored to values seen in sham-operated rats”.

The values above are taken from US8614222B2, “Methods of preventing and treating low bone mass diseases” (The Trustees of Columbia University in the City of New York, priority 2008, dated 2013).
